“Also recorded” adds a separate entry of the source. Read-outs that look alike come from different tables or passages of the source.
Tests used:
[1] = system: rats with reserpine-induced pain sensitivity; assay: Reserpine-induced fibromyalgia model, von Frey test; format: in vivo, rat; details: 2C-B 10 and 20 mg/kg; duloxetine positive control; 60-min post-injection
Experimental: Reserpine (1 mg/kg/s.c.) is administered for 3 days to mimic chronic widespread pain and complex symptoms.
In this Example, male Sprague Dawley rats are tested in a behavioral model of FMA based on the protocol from Nakagura et al. (2009) Pain 146:26. This model uses three daily doses of reserpine (1 mg/kg, SC) or 0.5% acetic acid vehicle to reduce pain thresholds (i.e., increase pain perception) in the Von Frey Test (vFT, procedure outlined below).
Von Frey Test (vFT) procedure: Increasing pain thresholds in this test are consistent with a reduction in pain perception. Prior to the start of dosing, rats are tested for their baseline mechanical pain threshold. For von Frey measurements, animals are placed into wire bottom cubicles with opaque Plexiglas walls, allowing access to the underside of their paws. Animals are habituated to this environment for at least 30 minutes before the start of the von Frey filament application. Static allodynia is measured using Semmes-Weinstein von Frey filaments (Stoelting, Wood Dale, IL). Mechanical allodynia is tested by touching the plantar surface of the animals' left and right hind paws with von Frey filaments which deliver a calibrated amount of force. Each von Frey filament is presented perpendicularly to the plantar surface for approximately 6 seconds of constant application in either ascending or descending strength in a modified up-and-down method (Chaplan et al. (1994) J Neurosci. Meth. 53:55). Stimulation is presented at intervals of several seconds, allowing for apparent resolution of any behavioral responses to previous stimuli. A positive response is noted if the paw is sharply withdrawn. Flinching immediately upon removal of the hair is also considered a positive response. […]
VonFrey measurements: Animals were placed into wire bottom cubicles with opaque Plexiglas walls, allowing access to the underside of their paws. […] Static allodynia was measured using Semmes-Weinstein von Frey filaments (Stoelting, Wood Dale, IL). […] The average hindpaw thresholds were determined 60-min post-injection. […]

[2] = system: rats (Sprague Dawley; Flinders Sensitive Line); details: cited from earlier work
[3] = system: mice; assay: Mouse fear extinction paradigm (PTSD model); format: in vivo; details: MBDB 5 mg/kg IP; day 2
Text: Effective PTSD treatments facilitate the disassociation between a traumatic memory and the patient's fear response, making cues for the traumatic memory evoke less of a fear response. This is modeled in the mouse fear extinction paradigm (see FIG. 9A) which takes place over 3 days. On day 1 (fear conditioning), mice are trained to acquire a “traumatic memory,” namely associating the conditioned stimulus (CS, tone) to the unconditioned stimulus (US, foot shock). On day 2 (extinction training), they are trained to forget the traumatic memory association by presenting the CS 6 times (with no US) in a novel environment. On day 3 (extinction recall), the mice are “asked” if that tone (CS) still elicits a fearful response, as measured by the time spent freezing when the tone is presented. Less time freezing means better extinction recall. Drugs that improve extinction recall reduce freezing time on day 3, and, therefore, show potential as a PTSD treatment.

[4] = system: experienced drug users; details: cited from earlier work
[5] = system: Male Sprague Dawley rats; assay: Forced Swim Test (FST); format: in vivo, rat
Text: The Forced Swim Test (FST) is a classic, and the most used preclinical behavioral assay to screen compounds with antidepressant-like activity and has high predictive and face validity (Porsolt et al. (1977) Nature 266:730; Borsini and Meli (1988) Psychopharmacology 94:147). The premise of the FST is that when rats are placed into a cylinder filled with water, they will initially try to escape, but over time will become immobile. This increased immobility reflects behavioral despair, modeling a depressive-like state.
Forced Swim Test (FST): In the FST trial, rats were placed in a circular plexiglass container filled with water, with no means of escape. Water temperature was maintained at 22-25° C. and changed for every animal. After an acclimation period, rats were timed for inactivity (failure to struggle), activity, swim time and climbing time. Day 1 consisted of a 15 min acclimation trial, and Day 2 (24 h later) consisted of the 5 min test. A time sampling procedure was employed where animals were observed every 5 sec and scored for immobility, swimming, or climbing. Fluoxetine (10 mg/kg, IP, Sigma Aldrich) or 0.9% sterile saline vehicle (vehicle 3× group) were administered 23.5, 5, and 1 h before testing in the FST. […] The experimenter was blinded to treatment.
Forced Swim Test: In the FST trial, rats were placed in a circular plexiglass container filled with water, with no means of escape. Water temperature was maintained at 22-25° C. and changed for every animal. After an acclimation period, rats were timed for inactivity (failure to struggle), activity, swim time and climbing time. Day 1 consisted of a 15 min acclimation trial, and Day 2 (24 h later) consisted of the 5 min test. A time sampling procedure was employed where animals were observed every 5 sec and scored for immobility, swimming, or climbing. Fluoxetine (10 mg/kg, IP, Sigma Aldrich) or 0.9% sterile saline vehicle (vehicle 3× group) were administered 23.5, 5, and 1 h before testing in the FST. 2C-B (2.5, 10, or 20 mg/kg, IP, Cayman Chemical) or 0.9% saline vehicle (vehicle 1× group) were administered 30 min prior to FST testing. The experimenter was blinded to treatment.
Drug Treatment: Fluoxetine (10 mg/kg, IP, Sigma Aldrich) or 0.9% sterile saline vehicle were administered 23.5, 5, and 1 h before testing in the FST. […] Control animals received fluoxetine alone, methylone alone, or saline vehicle.
Forced Swim Test: In the FST trial, rats were placed in a circular plexiglass container filled with water, with no means of escape. Water temperature was maintained at 22-25° C. and changed for every animal. After an acclimation period, rats were timed for inactivity (failure to struggle), activity, swim time and climbing time. The experimenter and scorer were blind to treatment group. Day 1 consisted of a 15 min acclimation trial, and Day 2 (24 h later) consisted of the 5 min test. A time sampling procedure was employed where animals were observed every 5 sec and scored for immobility, swimming, or climbing.
Control animals received saline vehicle. The dosing schedule and experimental design are found in FIG. 12A.
The FST was performed and scored by an experimenter blind to treatment group according to standard protocols and based on a “modified FST” procedure (Slattery and Cryan (2012) Nat Protoc, 7:1009). Briefly, rats were placed in a circular plexiglass container (29.2 cm diameter, 49.5 cm height) filled with water to a depth of 30 cm so rats could not support themselves by touching the bottom of the tank. Water was maintained at 22-25° C. and was changed for every animal. Day 1 (Training) consisted of a 15 min acclimation trial, and Day 2 (Testing, 24 h later) consisted of the 5 min test. […]

[6] = system: serotonergic terminals in the cortex and hippocampus; details: 25 mg/kg IP every 12 hours for 4 days; 2 weeks post-treatment; cited from earlier work
[7] = system: Male C57Bl/6 mice; assay: Cisplatin chemotherapy-induced peripheral neuropathy (CIPN) model, von Frey test; format: in vivo, mouse
Experimental: Cisplatin, a platinum-based chemotherapy agent has been used to reduce pain thresholds in a model of CIPN. Effects of acute (single higher dose) or sub-chronic (7 days repeated lower dose) 2C-B on pain thresholds were investigated in cisplatin-treated animals compared with vehicle or cisplatin-treated controls.
Methods: Male C57Bl/6 mice aged 12-16 weeks were used. Cisplatin (2.5 mg/kg) or vehicle was administered on days 1-5 and 11-15.
Vehicle, sub-chronic 2C-B (5 mg/kg once daily days 17-23) or acute 2C-B (20 mg/kg once on day 17) was then administered IP (N=16-18/group). VonFrey testing took place on day 17 (30 min post-dose) and days 21 and 24 (pre-dose) to monitor the effects of 2C-B in cisplatin treated animals, compared with animals receiving cisplatin+vehicle or vehicle+vehicle.
For von Frey measurements, animals were placed into wire bottom cubicles with opaque Plexiglas walls, allowing access to the underside of their paws. Animals were habituated to this environment for at least 30 minutes before the start of the von Frey filament application. Static allodynia was measured using Semmes-Weinstein von Frey filaments (Stoelting, Wood Dale, IL). Mechanical allodynia was tested by touching the plantar surface of the animals' right and left hind paws with von Frey filaments which deliver a calibrated amount of force (0.07, 0.16, 0.4, 0.6. 1.0, 2.0, 4.0, 6.0 g). […]

CNCC[C@H](Oc1cccc2ccccc12)c1cccs1 [duloxetine, reference compound]
animals with complete (maximal) reversal of reserpine-induced pain sensitivity [1]: 44%

CCN(CC)C(=O)[C@@H]1C=C2c3cccc4[nH]cc(c34)C[C@H]2N(C)C1 [LSD, lysergic acid-N,N-diethylamide]
reduction in immobility (FST) ([2]; Hibicke et al. (2020)): 38%

CCC(Cc1ccc2c(c1)OCO2)NC (racemic) [MBDB, N-methyl-1-(1,3-benzodioxol-5-yl)-2-aminobutane]
extinction acquisition (freezing, first trial of extinction training) [3]: improved extinction acquisition; also recorded: significantly reduced | locomotor activity [3]: small, but significant increase in locomotor activity | serious adverse effects ([4]; self-administered under supervision, dose 100 to 300 mg): no serious adverse effects | immobility (FST) ([5]; MBDB 5-30 mg/kg IP, 30 min before testing): significantly reduced immobility | serotonergic terminals in the cortex and hippocampus destroyed [6]: 55-60%

COc1cc(CCN)c(OC)cc1Br [2C-B, 4-Bromo-2,5-dimethoxyphenethylamine]
serious adverse effects ([4]; self-administered, dose 10 to 20 mg): no serious adverse effects | climbing (FST) ([5]; 2C-B high-dose group only): significantly decreased | swimming (FST) ([5]; single dose of 2C-B 30 minutes before testing): significant increase in swimming | animals with complete (maximal) reversal of reserpine-induced pain sensitivity [1]: 100% | effect of repeated doses in CIPN model ([7]; repeated doses of 5 mg/kg, once daily days 17-23): sustained beneficial effect | pain thresholds (von Frey) in cisplatin-treated animals ([7]; within 30 min of a single dose, 5 or 20 mg/kg IP, day 17): significantly increased

CN(C)CCc1c[nH]c2cccc(OP(=O)(O)O)c12 [psilocybin]
reduction in immobility (FST) ([2]; Hibicke et al. (2020)): 67%

CNCCC(Oc1ccc(C(F)(F)F)cc1)c1ccccc1 (stereo not drawn) [fluoxetine, reference compound]
swimming behavior (FST) ([5]; Example 8): significantly increased swimming behavior

CNC1(c2ccccc2Cl)CCCCC1=O (stereo not drawn) [ketamine]
reduction in immobility (FST) ([2]; Hibicke et al. (2020)): 30% | reduction in immobility (FST) ([2]; Tizabi et al. (2012)): 60% | reduction in immobility (FST) ([2]; Yang et al. (2013)): 25-55%
